From BindingDB's records for doi:10.1021/jm500763m (Beijing Institute of Pharmacology & Toxicology, 2014)
Peptide text beside a SMILES is read from it. * marks the point of attachment. X5 = C=C(C)[C@@H]1CC[C@]2(C(=O)OCc3cn(CC(=O)*)nn3)CC[C@]3(C)[C@H](CC[C@@H]4[C@@]5(C)CC[C@H](OC(C)=O)C(C)(C)[C@@H]5CC[C@]43C)[C@@H]12; X8 = C[C@H]1[C@H](C)CC[C@]2(C(=O)O)CC[C@]3(C)C(=CC[C@@H]4[C@@]5(C)CC[C@H](OC(=O)CCc6cn(CC(=O)*)nn6)C(C)(C)[C@@H]5CC[C@]43C)[C@H]12; X7 = C[C@H]1[C@H](C)CC[C@]2(C(=O)OCc3cn(CC(=O)*)nn3)CC[C@]3(C)C(=CC[C@@H]4[C@@]5(C)CC[C@H](O)C(C)(C)[C@@H]5CC[C@]43C)[C@H]12; X6 = CC1(C)CC[C@]2(C(=O)O)CC[C@]3(C)C(=CC[C@@H]4[C@@]5(C)CC[C@H](OC(=O)CCc6cn(CC(=O)*)nn6)C(C)(C)[C@@H]5CC[C@]43C)[C@@H]2C1; X10 = CC1(C)CC[C@]2(C(=O)OCc3cn(CC(=O)*)nn3)CC[C@]3(C)C(=CC[C@@H]4[C@@]5(C)CC[C@H](O)C(C)(C)[C@@H]5CC[C@]43C)[C@@H]2C1; βAla = NCCC(=O)O

Assay: Inhibition of HIV1 gp41-induced cell-cell fusion between viral envelope expressing human HL2/3 cells to CD4/CCR5 receptor expressing TZM-bl cells after 6 to 8 hrs by luciferase assay

Row | Structure (SMILES) | EC50 [nM]
1 | CC[C@H](C)[C@H](NC(=O)[C@H](CC(C)C)NC(=O)[C@H](CO)NC(=O)[C@H](Cc1cnc[nH]1)NC(=O)[C@@H](NC(=O)[C@H](CC(C)C)NC(=O)[C@H](CO)NC(=O)[C@@H](NC(=O)[C@H](Cc1ccc(O)cc1)NC(=O)[C@H](CC(N)=O)NC(=O)[C@H](CC(N)=O)NC(=O)CCNC(=O)Cn1cc(CCC(=O)O[C@H]2CC[C@]3(C)[C@H]4CC=C5[C@@H]6CC(C)(C)CC[C@]6(C(=O)O)CC[C@@]5(C)[C@]4(C)CC[C@H]3C2(C)C)nn1)[C@@H](C)O)[C@@H](C)CC)C(=O)N[C@@H](CCC(=O)O)C(=O)N[C@@H](CCC(=O)O)C(=O)N[C@@H](CO)C(=O)N[C@@H](CCC(N)=O)C(=O)N[C@@H](CC(N)=O)C(=O)N[C@@H](CCC(N)=O)C(=O)N[C@@H](CCC(N)=O)C(=O)N[C@@H](CCC(=O)O)C(=O)N[C@@H](CCCCN)C(=O)N[C@@H](CC(N)=O)C(=O)N[C@@H](CCC(=O)O)C(=O)N[C@@H](CCC(N)=O)C(=O)N[C@@H](CCC(=O)O)C(=O)N[C@@H](CC(C)C)C(=O)N[C@@H](CC(C)C)C(N)=O ({X6-βAla}-NNYTSLIHSLIEESQNQQEKNEQELL-NH2) | 29
2 | CC[C@H](C)[C@H](NC(=O)[C@H](CC(C)C)NC(=O)[C@H](CO)NC(=O)[C@H](Cc1cnc[nH]1)NC(=O)[C@@H](NC(=O)[C@H](CC(C)C)NC(=O)[C@H](CO)NC(=O)[C@@H](NC(=O)[C@H](Cc1ccc(O)cc1)NC(=O)[C@H](CC(N)=O)NC(=O)[C@H](CC(N)=O)NC(=O)CCNC(=O)Cn1cc(COC(=O)[C@]23CC[C@@H](C)[C@H](C)[C@H]2C2=CC[C@@H]4[C@@]5(C)CC[C@H](O)C(C)(C)[C@@H]5CC[C@@]4(C)[C@]2(C)CC3)nn1)[C@@H](C)O)[C@@H](C)CC)C(=O)N[C@@H](CCC(=O)O)C(=O)N[C@@H](CCC(=O)O)C(=O)N[C@@H](CO)C(=O)N[C@@H](CCC(N)=O)C(=O)N[C@@H](CC(N)=O)C(=O)N[C@@H](CCC(N)=O)C(=O)N[C@@H](CCC(N)=O)C(=O)N[C@@H](CCC(=O)O)C(=O)N[C@@H](CCCCN)C(=O)N[C@@H](CC(N)=O)C(=O)N[C@@H](CCC(=O)O)C(=O)N[C@@H](CCC(N)=O)C(=O)N[C@@H](CCC(=O)O)C(=O)N[C@@H](CC(C)C)C(=O)N[C@@H](CC(C)C)C(N)=O ({X7-βAla}-NNYTSLIHSLIEESQNQQEKNEQELL-NH2) | 145
3 | CC[C@H](C)[C@H](NC(=O)[C@H](CC(C)C)NC(=O)[C@H](CO)NC(=O)[C@H](Cc1cnc[nH]1)NC(=O)[C@@H](NC(=O)[C@H](CC(C)C)NC(=O)[C@H](CO)NC(=O)[C@@H](NC(=O)[C@H](Cc1ccc(O)cc1)NC(=O)[C@H](CC(N)=O)NC(=O)[C@H](CC(N)=O)NC(=O)CCNC(=O)Cn1cc(COC(=O)[C@]23CCC(C)(C)C[C@H]2C2=CC[C@@H]4[C@@]5(C)CC[C@H](O)C(C)(C)[C@@H]5CC[C@@]4(C)[C@]2(C)CC3)nn1)[C@@H](C)O)[C@@H](C)CC)C(=O)N[C@@H](CCC(=O)O)C(=O)N[C@@H](CCC(=O)O)C(=O)N[C@@H](CO)C(=O)N[C@@H](CCC(N)=O)C(=O)N[C@@H](CC(N)=O)C(=O)N[C@@H](CCC(N)=O)C(=O)N[C@@H](CCC(N)=O)C(=O)N[C@@H](CCC(=O)O)C(=O)N[C@@H](CCCCN)C(=O)N[C@@H](CC(N)=O)C(=O)N[C@@H](CCC(=O)O)C(=O)N[C@@H](CCC(N)=O)C(=O)N[C@@H](CCC(=O)O)C(=O)N[C@@H](CC(C)C)C(=O)N[C@@H](CC(C)C)C(N)=O ({X10-βAla}-NNYTSLIHSLIEESQNQQEKNEQELL-NH2) | 176

Second part, the molecule after the results:

Row | EC50 [nM] | Structure (SMILES)
4 | 327 | C=C(C)[C@@H]1CC[C@]2(C(=O)OCc3cn(CC(=O)NCCC(=O)N[C@@H](CC(N)=O)C(=O)N[C@@H](CC(N)=O)C(=O)N[C@@H](Cc4ccc(O)cc4)C(=O)N[C@H](C(=O)N[C@@H](CO)C(=O)N[C@@H](CC(C)C)C(=O)N[C@H](C(=O)N[C@@H](Cc4cnc[nH]4)C(=O)N[C@@H](CO)C(=O)N[C@@H](CC(C)C)C(=O)N[C@H](C(=O)N[C@@H](CCC(=O)O)C(=O)N[C@@H](CCC(=O)O)C(=O)N[C@@H](CO)C(=O)N[C@@H](CCC(N)=O)C(=O)N[C@@H](CC(N)=O)C(=O)N[C@@H](CCC(N)=O)C(=O)N[C@@H](CCC(N)=O)C(=O)N[C@@H](CCC(=O)O)C(=O)N[C@@H](CCCCN)C(=O)N[C@@H](CC(N)=O)C(=O)N[C@@H](CCC(=O)O)C(=O)N[C@@H](CCC(N)=O)C(=O)N[C@@H](CCC(=O)O)C(=O)N[C@@H](CC(C)C)C(=O)N[C@@H](CC(C)C)C(N)=O)[C@@H](C)CC)[C@@H](C)CC)[C@@H](C)O)nn3)CC[C@]3(C)[C@H](CC[C@@H]4[C@@]5(C)CC[C@H](OC(C)=O)C(C)(C)[C@@H]5CC[C@]43C)[C@@H]12 ({X5-βAla}-NNYTSLIHSLIEESQNQQEKNEQELL-NH2)
5 | 52 | CC[C@H](C)[C@H](NC(=O)[C@H](CC(C)C)NC(=O)[C@H](CO)NC(=O)[C@H](Cc1cnc[nH]1)NC(=O)[C@@H](NC(=O)[C@H](CC(C)C)NC(=O)[C@H](CO)NC(=O)[C@@H](NC(=O)[C@H](Cc1ccc(O)cc1)NC(=O)[C@H](CC(N)=O)NC(=O)[C@H](CC(N)=O)NC(=O)CCNC(=O)Cn1cc(CCC(=O)O[C@H]2CC[C@]3(C)[C@H]4CC=C5[C@@H]6[C@@H](C)[C@H](C)CC[C@]6(C(=O)O)CC[C@@]5(C)[C@]4(C)CC[C@H]3C2(C)C)nn1)[C@@H](C)O)[C@@H](C)CC)C(=O)N[C@@H](CCC(=O)O)C(=O)N[C@@H](CCC(=O)O)C(=O)N[C@@H](CO)C(=O)N[C@@H](CCC(N)=O)C(=O)N[C@@H](CC(N)=O)C(=O)N[C@@H](CCC(N)=O)C(=O)N[C@@H](CCC(N)=O)C(=O)N[C@@H](CCC(=O)O)C(=O)N[C@@H](CCCCN)C(=O)N[C@@H](CC(N)=O)C(=O)N[C@@H](CCC(=O)O)C(=O)N[C@@H](CCC(N)=O)C(=O)N[C@@H](CCC(=O)O)C(=O)N[C@@H](CC(C)C)C(=O)N[C@@H](CC(C)C)C(N)=O ({X8-βAla}-NNYTSLIHSLIEESQNQQEKNEQELL-NH2)
